Assay results from patent US20230190796A1, “ENGINEERED CELLS EXPRESSING PROSTATE-SPECIFIC MEMBRANE ANTIGEN (PSMA) OR A MODIFIED FORM THEREOF AND RELATED METHODS” (Juno Therapeutics, Inc., priority 2017, published 2023).

How the values were obtained:
[1] = system: T cells expressing anti-CD19 CAR/PSMA^(N9del); experiment: Cytokine release in co-culture in the presence of DCFPyL; type: cell-based, human; conditions: E:T 4:1 and 1:1; eight 3-fold serial dilutions of DCFPyL starting from 1×10^−5 M
Procedure: Specifically, accumulated amounts (pg/mL) of cytokine(s) (IL-2, IFN-gamma, TNF-alpha) were assessed following incubation of the target cells and the various populations of engineered cells, for a period of approximately 22-24 hours. Such assays provided a measure of antigen-specific cytokine secretion per CAR+ cell in the dose. In other assays, cytolytic activity against CD19-expressing target cells was assessed after incubation with the T cells.
Cytokine amounts in culture supernatants were determined using a multiplex cytokine immunoassay (Luminex®).

[2] = system: T cells expressing anti-CD19 CAR/PSMA^(N9del); experiment: Cytolytic assay in the presence of DCFPyL; type: cell-based, human; conditions: E:T 4:1; seven 3-fold serial dilutions of DCFPyL starting from 3.33×10^−6 M
Procedure: Cytolytic activity was assessed by measuring the loss of viable target cells over a period of three days, as determined by red fluorescent signal (using the IncuCyte® Live Cell Analysis System, Essen Bioscience). The number of NLR+ target cells was determined every 2 hours over time from 0 hours to 66 hours. Where indicated, a killing index was determined as 1/area under the curve (AUC) of the NLR+ target cell count over time, from 0 hours to 66 hours.
Specifically, co-cultures were incubated with DCFPyL at one of seven (7) 3-fold serial dilutions of DCFPyL starting from 3.33×10^−6 M, or were incubated without DCFPyL (0 M).

O=C(O)CCC(NC(=O)NC(CCCCNC(=O)c1ccc(F)nc1)C(=O)O)C(=O)O (centres unmarked) [DCFPyL, 2-(3-{1-carboxy-5-[(6-fluoro-pyridine-3-carbonyl)-amino]-pentyl}-ureido)-pentanedioicacid]
effect on IFN-γ production [1]: did not substantially affect | effect on cytolytic activity of T cells expressing anti-CD19 CAR/PSMA^(N9del) [2]: did not affect
